In patent US20260200979A1, “PEPTIDE FOR CARTILAGE REGENERATION, AND USES THEREOF” (CAREGEN CO., LTD., priority 2022, published 2026):
Ends that are not written are not given here.

Test system: human-derived chondrocytes (C28/I2, human chondrocyte cell line)
Assay: CCK-8 cytotoxicity assay
Type: cell-based
Settings: C28/I2 cells, different concentrations, 3 days, 450 nm
Description: The cytotoxicity of Peptide-1 or Peptide-2 upon addition to human-derived chondrocytes (C28/I2, human chondrocyte cell line) was analyzed using a CCK-8 assay.
Specifically, human-derived chondrocytes were seeded in a 96-well plate at a density of 3×10^3 cells/well and cultured in DMEM medium (cat. 11995-065, Gibco) for 24 hours. […] Meanwhile, as a negative control group, an experimental group to which the peptide was not added was used.

Substance	cytotoxicity (CCK-8 activity)
KFLIK [Peptide-2, KFLIK]	did not exhibit toxicity
PYYRI [Peptide-1, PYYRI]	did not exhibit toxicity
